Measurements: the NIST ThermoML archive (doi:10.1016/j.jct.2017.11.009)
Numbers after ± are expanded uncertainties.

Experiment: Boiling temperature at pressure P
Conditions: 101.3 kPa; Liquid; Ebulliometric method (Recirculating still)

Boiling temperature at pressure P	Compound
197.17 ± 0.4 °C	OCCO [1,2-ethanediol]
199.10 ± 0.4 °C	CNC=O [N-methylformamide]
202.29 ± 0.4 °C	CN1CCCC1=O [N-methylpyrrolidone]

Compound	Boiling temperature at pressure P
C=CCO [2-propenol]	96.80 ± 0.4 °C
